Each compound was assayed against [Pyruvate dehydrogenase (acetyl-transferring)] kinase isozyme 1, mitochondrial (Homo sapiens, UniProt Q15118) (assay: Binding affinity to pyruvate dehydrogenase kinase 1 (unknown origin) incubated for 90 mins by VER-00160364 probe based fluorescence polarization assay).
[Pyruvate dehydrogenase (acetyl-transferring)] kinase isozyme 1, mitochondrial, sequence (Q15118 whole entry): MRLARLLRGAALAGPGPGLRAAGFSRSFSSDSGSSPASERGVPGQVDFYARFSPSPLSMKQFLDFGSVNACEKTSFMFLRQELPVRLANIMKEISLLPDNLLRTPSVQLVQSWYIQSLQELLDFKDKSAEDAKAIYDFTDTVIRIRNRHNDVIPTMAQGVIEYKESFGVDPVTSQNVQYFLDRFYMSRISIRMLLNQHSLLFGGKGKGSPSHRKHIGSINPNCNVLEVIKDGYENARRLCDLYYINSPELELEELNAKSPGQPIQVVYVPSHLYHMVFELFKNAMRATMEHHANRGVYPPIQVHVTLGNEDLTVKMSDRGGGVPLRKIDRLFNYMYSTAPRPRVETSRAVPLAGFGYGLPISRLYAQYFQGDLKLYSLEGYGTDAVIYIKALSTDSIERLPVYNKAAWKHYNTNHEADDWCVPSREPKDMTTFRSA

SMILES	IC50
Cc1cc2ccccc2nc1-c1ccc(N(Cc2cc(F)cc(F)c2)C(=O)c2ccc(O)cc2O)cc1	1000 nM
Cc1cnc(C)c(-c2ccc(N(Cc3ccccc3)C(=O)c3ccc(O)cc3O)cc2)n1	100 nM
Cc1cc2[nH]c(=O)[nH]c2cc1-c1ccc(N(Cc2ccccc2)C(=O)c2ccc(O)cc2O)cc1	10000 nM
Cc1cc2ccccc2nc1-c1ccc(N(Cc2ccc(F)c(F)c2)C(=O)c2ccc(O)cc2O)cc1	100 nM
O=C(c1ccc(O)cc1O)N(Cc1ccccc1)c1ccc(-c2ccccc2Cl)cc1	10 nM
CCc1nccnc1-c1ccc(N(Cc2ccccc2)C(=O)c2ccc(O)cc2O)cc1	100 nM
Cc1cc2ccccc2nc1-c1ccc(N(Cc2ccc(-c3ccccc3)cc2)C(=O)c2ccc(O)cc2O)cc1	100 nM
Cc1c(Cl)nc(Cl)nc1-c1ccc(N(Cc2ccccc2)C(=O)c2ccc(O)cc2O)cc1	1000 nM
COc1ccc2nc(-c3ccc(N(Cc4ccccc4)C(=O)c4ccc(O)cc4O)cc3)c(C)cc2c1	100 nM
Cc1cnc(Cl)nc1-c1ccc(N(Cc2ccc(CN3CCCC3)cc2)C(=O)c2ccc(O)cc2O)cc1	10 nM
O=C(c1ccc(O)cc1O)N(Cc1ccccc1)c1ccc(-c2nc3ccccc3nc2C(F)(F)F)cc1	1000 nM
Cc1ccc(C)c(-c2ccc(N(Cc3ccccc3)C(=O)c3ccc(O)cc3O)cc2)n1	10 nM
Cc1c(-c2ccc(N(Cc3ccccc3)C(=O)c3ccc(O)cc3O)cc2)ccc2[nH]ncc12	1000 nM
Cc1cn(-c2ccc(-c3ccc(N(Cc4ccccc4)C(=O)c4ccc(O)cc4O)cc3)nn2)cn1	1000 nM
CCNCc1ccc(CN(C(=O)c2ccc(O)cc2O)c2ccc(-c3nc4ccccc4cc3C)cc2)cc1	100 nM
O=C(c1ccc(O)cc1O)N(Cc1ccccc1)c1ccc(-c2ccc(N3CCOCC3)nn2)cc1	1000 nM
Cc1cnc(C#N)nc1-c1ccc(N(Cc2ccccc2)C(=O)c2ccc(O)cc2O)cc1	100 nM
O=C(c1ccc(O)cc1O)N(Cc1ccccc1)c1ccc(-c2nncc3ccccc23)cc1	1000 nM
Cc1cnc(Cl)nc1-c1ccc(N(Cc2ccccc2)C(=O)c2cc(C(F)(F)F)c(O)cc2O)cc1	1000 nM
Cc1cc(N(Cc2ccccc2)C(=O)c2ccc(O)cc2O)ccc1-c1nc(Cl)ncc1C	1000 nM
NC(=O)c1nc(-c2ccc(N(Cc3ccccc3)C(=O)c3ccc(O)cc3O)cc2)c2ccccc2n1	10000 nM
O=C(Nc1ccc(N(Cc2ccccc2)C(=O)c2ccc(O)cc2O)cc1)NC1CCCC1	10000 nM
O=C(Nc1ccc(N(Cc2ccccc2)C(=O)c2ccc(O)cc2O)cc1)c1ccccc1	1000 nM

SMILES	IC50
CC(=O)Nc1ccc(N(Cc2ccccc2)C(=O)c2ccc(O)cc2O)cc1	1000 nM
O=C(Nc1ccc(N(Cc2ccccc2)C(=O)c2ccc(O)cc2O)cc1)c1cc2ccccc2s1	10000 nM
O=C(c1ccc(O)cc1O)N(Cc1ccccc1)c1ccc(-c2nc(Cl)nn3cccc23)cc1	1000 nM
Nc1ccc(-c2ccc(N(Cc3ccccc3)C(=O)c3ccc(O)cc3O)cc2)nn1	100 nM
Cc1cnc(Cl)nc1-c1ccc(N(Cc2cccc(Cn3ccnc3)c2)C(=O)c2cc(Cl)c(O)cc2O)cc1	10 nM
CCNC(=O)Nc1ccc(N(Cc2ccccc2)C(=O)c2ccc(O)cc2O)cc1	1000 nM
C#Cc1ncc(C)c(-c2ccc(N(Cc3ccccc3)C(=O)c3ccc(O)cc3O)cc2)n1	1000 nM
Cc1ncc(C)c(-c2ccc(N(Cc3ccccc3)C(=O)c3cc(Cl)c(O)cc3O)cc2)n1	100 nM
Cc1ccc(Cl)cc1-c1ccc(N(Cc2ccccc2)C(=O)c2ccc(O)cc2O)cc1	1000 nM
O=C(c1ccc(O)cc1O)N(Cc1ccccc1)c1ccc(-c2cnc3ccccc3n2)cc1	10000 nM
O=C(Cc1ccccc1)Nc1ccc(N(Cc2ccccc2)C(=O)c2ccc(O)cc2O)cc1	1000 nM
O=C(c1ccc(O)cc1O)N(Cc1ccccc1)c1ccc(-c2nc3ccc(Cl)cc3cc2CO)cc1	1000 nM
Cc1nccnc1-c1ccc(N(Cc2ccccc2)C(=O)c2ccc(O)cc2O)cc1	1000 nM
CN(C)C(=O)c1ccc(N(Cc2ccncc2)C(=O)c2cc(Cl)c(O)cc2O)cc1	1000 nM
Cc1noc(-c2ccccc2CN(C(=O)c2ccc(O)cc2O)c2ccc(-c3nc4ccccc4cc3C)cc2)n1	10 nM
O=C(c1ccc(O)cc1O)N(Cc1ccccc1)c1ccc(-c2ncnc3ccc(Cl)cc23)cc1	100 nM
Cc1cnc(Cl)nc1-c1ccc(N(Cc2ccc(C#N)cc2)C(=O)c2ccc(O)cc2O)cc1	100 nM
Cc1cc2ccccc2nc1-c1ccc(N(Cc2ccc(F)cc2)C(=O)c2ccc(O)cc2O)cc1	100 nM
Cc1cc2ccccc2nc1-c1ccc(N(Cc2cccc(F)c2)C(=O)c2ccc(O)cc2O)cc1	10 nM
O=C(c1ccc(O)cc1O)N(Cc1ccccc1)c1ccc(-c2ccc(NC3CC3)nn2)cc1	100 nM
O=C(c1ccc(O)cc1O)N(Cc1ccccc1)c1ccc(-c2nc3ccccc3cc2CO)cc1	10000 nM
CN(C)C(=O)c1ccc(N(Cc2ccn(C)n2)C(=O)c2cc(Cl)c(O)cc2O)cc1	10000 nM
COc1cnc(Cl)nc1-c1ccc(N(Cc2ccccc2)C(=O)c2ccc(O)cc2O)cc1C	1000 nM

SMILES	IC50
Cc1cnc(-c2cccnc2)nc1-c1ccc(N(Cc2ccccc2)C(=O)c2ccc(O)cc2O)cc1	1000 nM
Cc1cncnc1-c1ccc(N(Cc2ccccc2)C(=O)c2ccc(O)cc2O)cc1	100 nM
O=C(c1ccc(O)cc1O)N(Cc1ccccc1)c1ccc(-c2ccc(N3CCCC3)nn2)cc1	1000 nM
Cc1cnc(N(C)C)nc1-c1ccc(N(Cc2ccccc2)C(=O)c2ccc(O)cc2O)cc1	100 nM
O=C(NCc1ccccc1)Nc1ccc(N(Cc2ccccc2)C(=O)c2ccc(O)cc2O)cc1	1000 nM
CCOC(=O)c1nc(-c2ccc(N(Cc3ccccc3)C(=O)c3ccc(O)cc3O)cc2)c2ccccc2n1	10000 nM
Cc1nccnc1-c1ccc(N(Cc2ccccc2)C(=O)c2ccc(O)cc2O)cc1F	1000 nM
CSc1ccc(CN(C(=O)c2ccc(O)cc2O)c2ccc(-c3nc4ccccc4cc3C)cc2)cc1	100 nM
Cc1cc(N(Cc2ccccc2)C(=O)c2ccc(O)cc2O)ccc1-c1nc2cc(F)ccc2cc1C	100 nM
Cc1cnc(Cl)nc1-c1ccc(N(C(=O)c2ccc(O)cc2O)C(C)c2ccccc2)cc1 (configuration not stated)	1000 nM
Cc1cnc(Cl)nc1-c1ccc(N(Cc2ccccc2)C(=O)c2cc(Cl)c(O)cc2O)cc1	10 nM
O=C(c1ccc(O)cc1O)N(Cc1ccccc1)c1ccc(-c2nc(-c3ccsc3)nc3ccccc23)cc1	100 nM
O=C(c1ccc(O)cc1O)N(Cc1ccccc1)c1ccc(-c2nc(-c3ccccc3)nc3ccccc23)cc1	100 nM
Cc1ncc(C)c(-c2ccc(N(Cc3ccccc3)C(=O)c3ccc(O)cc3O)cc2)n1	100 nM
Cc1cc2ccccc2nc1-c1ccc(N(Cc2cccc3ccccc23)C(=O)c2ccc(O)cc2O)cc1	100 nM
O=C(Nc1ccc(N(Cc2ccccc2)C(=O)c2ccc(O)cc2O)cc1)NC1CCNCC1	10000 nM
N#Cc1cncnc1-c1ccc(N(Cc2ccccc2)C(=O)c2ccc(O)cc2O)cc1	1000 nM
O=C(c1ccc(O)cc1O)N(Cc1ccccc1)c1ccc(-c2ccc(-n3ccnc3)nn2)cc1	100 nM
CN(C)C(=O)c1ccc(N(CC2CCNCC2)C(=O)c2cc(Cl)c(O)cc2O)cc1	100 nM
COc1cnc(Cl)nc1-c1ccc(N(Cc2ccccc2)C(=O)c2cc(C)c(O)cc2O)cc1	1000 nM
Cc1cnc(Cl)nc1-c1ccc(N(C(=O)c2ccc(O)cc2O)[C@H](C)c2ccccc2)cc1	100 nM
Cc1cc2ccccc2nc1-c1ccc(N(Cc2ccc(CN(C)C)cc2)C(=O)c2ccc(O)cc2O)cc1	100 nM
CS(=O)(=O)Nc1ccc(N(Cc2ccccc2)C(=O)c2ccc(O)cc2O)cc1	1000 nM

SMILES	IC50
CN(C)C(=O)c1ccc(N(CCN2CCCCC2)C(=O)c2cc(Cl)c(O)cc2O)cc1	100 nM
Cc1cnc(-c2ccccc2)nc1-c1ccc(N(Cc2ccccc2)C(=O)c2ccc(O)cc2O)cc1	1000 nM
Cc1cc(C(=O)Nc2ccc(N(Cc3ccccc3)C(=O)c3ccc(O)cc3O)cc2)no1	10000 nM
Cc1cc2ccccc2nc1-c1ccc(N(Cc2ccccc2)C(=O)c2cc(Cl)c(O)cc2O)cc1	1000 nM
Cc1cnc(Cl)nc1-c1ccc(N(Cc2ccccc2)C(=O)c2ccc(O)cc2O)cc1F	100 nM
O=C(O)c1nc(-c2ccc(N(Cc3ccccc3)C(=O)c3ccc(O)cc3O)cc2)c2ccccc2n1	1000 nM
O=C(c1ccc(O)cc1O)N(Cc1ccccc1)c1ccc(-c2nc(Cl)c3c(n2)CCSC3)cc1	10 nM
Cc1nc(-c2ccc(N(Cc3ccccc3)C(=O)c3ccc(O)cc3O)cc2C)c2ccccc2n1	100 nM
Cc1cc(C(=O)N(Cc2ccccc2)c2ccc(-c3nc(Cl)ncc3C)cc2)c(O)cc1O	100 nM
Cc1cc2ccccc2nc1-c1ccc(N(Cc2ccc(CN3CCCC3)cc2)C(=O)c2ccc(O)cc2O)cc1	100 nM
Cc1nccn1-c1ccc(-c2ccc(N(Cc3ccccc3)C(=O)c3ccc(O)cc3O)cc2)nn1	10 nM
CSc1nc(-c2ccc(N(Cc3ccccc3)C(=O)c3ccc(O)cc3O)cc2)c2cc[nH]c2n1	1000 nM
O=C(c1ccc(O)cc1O)N(Cc1ccccc1)c1ccc(-c2ncnc3cccc(F)c23)cc1	1000 nM
Cc1ccc(CN(C(=O)c2ccc(O)cc2O)c2ccc(-c3nc(C)ncc3C)cc2)cc1	10 nM
Cc1cc2ccccc2nc1-c1ccc(N(Cc2ccc(CN3CCOCC3)cc2)C(=O)c2ccc(O)cc2O)cc1	1000 nM
Cc1cc2ccc(F)cc2nc1-c1ccc(N(Cc2ccccc2)C(=O)c2ccc(O)cc2O)cc1F	100 nM
Cc1cnc(-c2cccc(F)c2)nc1-c1ccc(N(Cc2ccccc2)C(=O)c2ccc(O)cc2O)cc1	1000 nM
Cc1cc2ccccc2nc1-c1ccc(N(Cc2ccc(Cl)cc2)C(=O)c2ccc(O)cc2O)cc1	1000 nM
O=C(Nc1ccc(N(Cc2ccccc2)C(=O)c2ccc(O)cc2O)cc1)c1cc2ccccc2[nH]1	10000 nM
O=C(Nc1ccc(N(Cc2ccccc2)C(=O)c2ccc(O)cc2O)cc1)Nc1cccnc1	1000 nM
Cc1cc(N)cnc1-c1ccc(N(Cc2ccccc2)C(=O)c2ccc(O)cc2O)cc1	100 nM
O=C(c1ccc(O)cc1O)N(Cc1ccccc1)c1ccc(-c2ncccc2CO)cc1	1000 nM
Cc1ccc(CN(C(=O)c2ccc(O)cc2O)c2ccc(-c3nc4ccccc4cc3C)cc2)cc1	10 nM
